Common to all, as to assay type: functional, organism-based
The subject of one experiment is Entamoeba histolytica. Put plainly: Inhibitory concentration against Entamoeba histolytica (HK-9) for antiprotozoal activity.
For another experiment, the system named is Giardia intestinalis. Put plainly: Inhibitory concentration against G. Lamblia (IMSS-0989) for antigiardial activity. The conditions noted are these: Giardia duodenalis.
For a further experiment, the system named is Trichomonas vaginalis. Briefly: Inhibitory concentration against Trichomonas vaginalis (tv-43) for anti-trichomonal activity.

One may read the IC50 as the midpoint of a concentration-inhibition curve. Low readings indicate higher potency, high ones lower potency.

With `O=[N+]([O-])c1ccc(/C=N/N=C(\S)N2CCCCCC2)s1`, the half-maximal inhibitory concentration (IC50) is 1.71 µM in the experiment with Entamoeba histolytica, 8.47 µM in the experiment with Giardia intestinalis and 8.78 µM in the experiment with Trichomonas vaginalis.

Turning to `CC(C)C/N=C(\S)N/N=C/c1ccc([N+](=O)[O-])s1`, the IC50 in the experiment on Entamoeba histolytica was 13.5 µM; in the experiment with Giardia intestinalis, 33.3 µM; in the experiment on Trichomonas vaginalis it was 6.31 µM.

With `CCC/N=C(\S)N/N=C/c1ccc([N+](=O)[O-])s1`, the half-inhibitory concentration (IC50) came to 15.4 µM in the experiment on Entamoeba histolytica, 57.3 µM in the experiment with Giardia intestinalis and 21 µM with Trichomonas vaginalis.

Take `O=[N+]([O-])c1ccc(/C=N/N=C(\S)NC2CCCC2)s1`: the IC50 in the experiment with Entamoeba histolytica worked out at 2.86 µM; in the experiment on Giardia intestinalis it was 33 µM; in the experiment with Trichomonas vaginalis it was 3.97 µM.

As to `CCCC/N=C(\S)N/N=C/c1ccc([N+](=O)[O-])s1`, the figures for the IC50 in the experiment on Entamoeba histolytica, in the experiment on Giardia intestinalis and with Trichomonas vaginalis were 12.2 µM, 17.2 µM and 1.49 µM, respectively.

Turning to `O=[N+]([O-])c1ccc(/C=N/N=C(\S)NC2CCCCC2)s1`, the IC50 with Entamoeba histolytica stood at 2.41 µM; in the experiment on Giardia intestinalis it was 13.9 µM; with Trichomonas vaginalis, 10.7 µM.

On to `CC(C)/N=C(\S)N/N=C/c1ccc([N+](=O)[O-])s1`, for which the half-inhibitory concentration (IC50) is 9.6 µM in the experiment on Entamoeba histolytica, 26.2 µM with Giardia intestinalis and 5.94 µM in the experiment on Trichomonas vaginalis.

As to `CN(/C(S)=N/N=C/c1ccc([N+](=O)[O-])s1)C1CCCCC1`, the concentration for half-maximal inhibition (IC50) with Entamoeba histolytica came out at 8.3 µM; with Giardia intestinalis, 11.7 µM; in the experiment with Trichomonas vaginalis, 18.3 µM.

For the molecule `CC(C)CN(CC(C)C)/C(S)=N/N=C/c1ccc([N+](=O)[O-])s1`, the results for the IC50 in the experiment on Entamoeba histolytica, in the experiment on Giardia intestinalis and in the experiment with Trichomonas vaginalis were 11.6 µM, 12 µM and 4.44 µM, respectively.

On to `Cc1ncc([N+](=O)[O-])n1CCO` [METRONIDAZOLE], for which the IC50 in the experiment with Entamoeba histolytica is 2.1 µM; with Giardia intestinalis, 1.16 µM; with Trichomonas vaginalis, 1.92 µM.

Take `CCCN(CCC)/C(S)=N/N=C/c1ccc([N+](=O)[O-])s1`: the 50% inhibitory concentration (IC50) stood at 6.4 µM in the experiment on Entamoeba histolytica, 8.2 µM in the experiment with Giardia intestinalis and 4.06 µM with Trichomonas vaginalis.

With `CCN(CC)/C(S)=N/N=C/c1ccc([N+](=O)[O-])s1`, the IC50 is 10.1 µM in the experiment on Entamoeba histolytica, 8.03 µM in the experiment on Giardia intestinalis and 6.01 µM in the experiment with Trichomonas vaginalis.

For the origin of these results see ChEMBL document CHEMBL1134994, “Synthesis and in vitro antiprotozoal activity of 5-nitrothiophene-2-carboxaldehyde thiosemicarbazone derivatives” (Bioorg Med Chem Lett, 2002).
